ChEMBL document CHEMBL3046414, “Synthesis, anticancer, anti-HIV-1, and antimicrobial activity of some tricyclic triazino and triazolo[4,3-e]purine derivatives” (Med Chem Res, 2012)
Values after ≈ are worked out from the molar mass of the structure shown.

Legend:
[1] = tested on: Human immunodeficiency virus 1; assay: Antiviral activity against Human immunodeficiency virus 1 infected CEM cells assessed as inhibition of virus-induced cytopathic effect at 2 X 10^-5 M by XTT assay; type: functional; conditions: Human immunodeficiency virus 1, CCRF-CEM
Aspergillus niger [2] = assay: Antimicrobial activity against Aspergillus niger ATCC 16404 after 48 hr by agar cup diffusion technique; type: functional
Escherichia coli = assay: Antimicrobial activity against Escherichia coli 5933 after 24 hr by agar cup diffusion technique; type: functional
Bacillus spizizenii [3] = assay: Antimicrobial activity against Bacillus subtilis subsp. spizizenii ATCC 6633 after 24 hr by agar cup diffusion technique; type: functional
Candida albicans = assay: Antimicrobial activity against Candida albicans NCTC 2708 after 48 hr by agar cup diffusion technique; type: functional
Staphylococcus aureus [4] = assay: Antimicrobial activity against Staphylococcus aureus NCTC 4163 after 24 hr by agar cup diffusion technique; type: functional
Pseudomonas aeruginosa [5] = assay: Antimicrobial activity against Pseudomonas aeruginosa ATCC 9027 after 24 hr by agar cup diffusion technique; type: functional
Saccharomyces cerevisiae = assay: Antimicrobial activity against Saccharomyces cerevisiae ATCC 9763 after 48 hr by agar cup diffusion technique; type: functional
Aspergillus niger [6] = assay: Antimicrobial activity against Aspergillus niger ATCC 16404 after 48 hr by two-fold serial dilution method; type: functional; conditions: ATCC 16404, 48 h
Proteus vulgaris [7] = assay: Antimicrobial activity against Proteus vulgaris ATCC 49132 after 24 hr by agar cup diffusion technique; type: functional
CCRF-CEM [8] = assay: Cytotoxicity against Homo sapiens (human) CEM cells by XTT assay; type: cell-based
Proteus vulgaris [9] = assay: Antimicrobial activity against Proteus vulgaris ATCC 49132 after 24 hr by two-fold serial dilution method; type: functional; conditions: ATCC 49132, 24 h
Staphylococcus aureus [10] = assay: Antimicrobial activity against Staphylococcus aureus NCTC 4163 after 24 hr by two-fold serial dilution method; type: functional; conditions: NCTC 4163, 24 h
NCI-H460 = assay: Anticancer activity against Homo sapiens (human) NCI-H460 cells assessed as cell growth at 100 uM after 48 hr by Alamar blue assay; type: functional; conditions: NCI-H460, 48 h, read-out: Activity
SF-268 = assay: Anticancer activity against Homo sapiens (human) SF268 cells assessed as cell growth at 100 uM after 48 hr by Alamar blue assay; type: functional; conditions: SF-268, 48 h, read-out: Activity
MCF7 = assay: Anticancer activity against Homo sapiens (human) MCF7 cells assessed as cell growth at 100 uM after 48 hr by Alamar blue assay; type: functional; conditions: MCF7, 48 h, read-out: Activity
Pseudomonas aeruginosa [11] = assay: Antimicrobial activity against Pseudomonas aeruginosa ATCC 9027 after 24 hr by two-fold serial dilution method; type: functional; conditions: ATCC 9027, 24 h
Bacillus spizizenii [12] = assay: Antimicrobial activity against Bacillus subtilis subsp. spizizenii ATCC 6633 after 24 hr by two-fold serial dilution method; type: functional; conditions: ATCC 6633, 24 h
Salmonella typhi [13] = assay: Antimicrobial activity against Salmonella enterica subsp. enterica serovar Typhi ATCC 13311 after 24 hr by two-fold serial dilution method; type: functional; conditions: ATCC 13311, 24 h
CAKI-1 = assay: Cytotoxicity against Homo sapiens (human) CAKI-1 cells after 48 hr by SRB assay; type: functional; conditions: CAKI-1, 48 h
[14] = Cytotoxicity against Homo sapiens (human) Ovarian cancer cell after 48 hr by SRB assay; type: functional; conditions: Cancer cell lines
[15] = Cytotoxicity against Homo sapiens (human) Breast cancer cell after 48 hr by SRB assay; type: functional; conditions: Cancer cell lines
[16] = Cytotoxicity against Homo sapiens (human) Prostate cancer cell after 48 hr by SRB assay; type: functional; conditions: Cancer cell lines
ACHN = assay: Cytotoxicity against Homo sapiens (human) ACHN cells after 48 hr by SRB assay; type: functional
[17] = Cytotoxicity against Homo sapiens (human) Melanoma cell after 48 hr by SRB assay; type: functional
HOP-92 = assay: Cytotoxicity against Homo sapiens (human) HOP92 cells after 48 hr by SRB assay; type: functional; conditions: HOP-92, 48 h
CCRF-CEM [18] = assay: Cytotoxicity against Homo sapiens (human) CCRF-CEM cells after 48 hr by SRB assay; type: functional
UO-31 = assay: Cytotoxicity against Homo sapiens (human) UO31 cells after 48 hr by SRB assay; type: functional; conditions: UO-31, 48 h
A498 = assay: Cytotoxicity against Homo sapiens (human) A498 cells after 48 hr by SRB assay; type: functional; conditions: A498, 48 h
[19] = Cytotoxicity against Homo sapiens (human) Colon cancer cell after 48 hr by SRB assay; type: functional; conditions: Cancer cell lines
[20] = Cytotoxicity against Homo sapiens (human) NSCLC cell after 48 hr by SRB assay; type: functional
Malme-3M = assay: Cytotoxicity against Homo sapiens (human) MALME-3M cells after 48 hr by SRB assay; type: functional
[21] = Cytotoxicity against Homo sapiens (human) CNS cancer cell after 48 hr by SRB assay; type: functional; conditions: Cancer cell lines
NCI-H226 = assay: Cytotoxicity against Homo sapiens (human) NCI-H226 cells after 48 hr by SRB assay; type: functional; conditions: NCI-H226, 48 h
Salmonella typhi [22] = assay: Antimicrobial activity against Salmonella enterica subsp. enterica serovar Typhi ATCC 13311 after 24 hr by agar cup diffusion technique; type: functional
[23] = Cytotoxicity against Homo sapiens (human) Leukemia cell after 48 hr by SRB assay; type: functional
[24] = Cytotoxicity against Homo sapiens (human) Renal cancer cell after 48 hr by SRB assay; type: functional; conditions: Cancer cell lines
T47D = assay: Cytotoxicity against Homo sapiens (human) T47D cells after 48 hr by SRB assay; type: functional
SK-MEL-5 = assay: Cytotoxicity against Homo sapiens (human) SK-MEL-5 cells after 48 hr by SRB assay; type: functional; conditions: SK-MEL-5, 48 h

With `Cn1c(=O)c2nc3[nH]nc(C(=O)O)c(=O)n3c2n(C)c1=O` the inhibition at 20 µM [1] was 3.73%, the “inhibition zone (IZ)” value (Aspergillus niger [2]) was 20 mm and the “inhibition zone (IZ)” value (Escherichia coli) was 13 mm. For the same compound, the “inhibition zone (IZ)” value (Bacillus spizizenii [3]) was 14 mm, the “inhibition zone (IZ)” value (Candida albicans) was 13 mm and the “inhibition zone (IZ)” value (Staphylococcus aureus [4]) was 14 mm. The “inhibition zone (IZ)” value (Pseudomonas aeruginosa [5]) was 16 mm, the “inhibition zone (IZ)” value (Saccharomyces cerevisiae) was 14 mm and the MIC (Aspergillus niger [6]) was less than 200 µg/mL. For the same compound, the “inhibition zone (IZ)” value (Proteus vulgaris [7]) was 21 mm, the IC50 (CCRF-CEM [8]) was greater than 200 µM and the MIC (Proteus vulgaris [9]) was less than 200 µg/mL.

For `CCSc1nnc2n(C)c3c(=O)n(C)c(=O)n(C)c3n12`, the “inhibition zone (IZ)” value (Escherichia coli) was 12 mm, the “inhibition zone (IZ)” value (Bacillus spizizenii [3]) was 13 mm and the “inhibition zone (IZ)” value (Candida albicans) was 11 mm. The “inhibition zone (IZ)” value (Staphylococcus aureus [4]) was 20 mm, the “inhibition zone (IZ)” value (Pseudomonas aeruginosa [5]) was 19 mm and the “inhibition zone (IZ)” value (Saccharomyces cerevisiae) was 13 mm. The MIC (Staphylococcus aureus [10]) was less than 200 µg/mL and the “inhibition zone (IZ)” value (Proteus vulgaris [7]) was 19 mm.

In the case of `CC(=O)c1n[nH]c2nc3c(=O)n(C)c(=O)n(C)c3n2c1=O`, the inhibition at 20 µM [1] is reported as 1.43%, the “inhibition zone (IZ)” value (Escherichia coli) is reported as 14 mm and the “inhibition zone (IZ)” value (Bacillus spizizenii [3]) is reported as 14 mm. The “inhibition zone (IZ)” value (Candida albicans) was 13 mm, the “inhibition zone (IZ)” value (Saccharomyces cerevisiae) was 13 mm and the “inhibition zone (IZ)” value (Proteus vulgaris [7]) was 23 mm. It also gave an IC50 (CCRF-CEM [8]) greater than 200 µM and an MIC (Proteus vulgaris [9]) of less than 100 µg/mL.

For `CCOC(=O)c1n[nH]c2nc3c(=O)n(C)c(=O)n(C)c3n2c1=N`, the growth at 100 µM (NCI-H460) was 99%, the “inhibition zone (IZ)” value (Escherichia coli) was 15 mm and the “inhibition zone (IZ)” value (Bacillus spizizenii [3]) was 14 mm. The “inhibition zone (IZ)” value (Candida albicans) was 17 mm, the “inhibition zone (IZ)” value (Staphylococcus aureus [4]) was 16 mm and the growth at 100 µM (SF-268) was 98%. The “inhibition zone (IZ)” value (Pseudomonas aeruginosa [5]) was 20 mm, the “inhibition zone (IZ)” value (Saccharomyces cerevisiae) was 15 mm and the growth at 100 µM (MCF7) was 93%. For the same compound, the “inhibition zone (IZ)” value (Proteus vulgaris [7]) was 22 mm and the MIC (Proteus vulgaris [9]) was less than 100 µg/mL.

In the case of `Cn1c(=O)c2c(n(C)c1=O)n1c(=S)[nH]nc1n2C`, the “inhibition zone (IZ)” value (Escherichia coli) is reported as 12 mm, the “inhibition zone (IZ)” value (Bacillus spizizenii [3]) is reported as 11 mm and the “inhibition zone (IZ)” value (Candida albicans) is reported as 11 mm. The “inhibition zone (IZ)” value (Staphylococcus aureus [4]) was 24 mm, the “inhibition zone (IZ)” value (Pseudomonas aeruginosa [5]) was 21 mm and the “inhibition zone (IZ)” value (Saccharomyces cerevisiae) was 12 mm. The MIC (Staphylococcus aureus [10]) was less than 50 µg/mL, the MIC (Pseudomonas aeruginosa [11]) was less than 100 µg/mL and the “inhibition zone (IZ)” value (Proteus vulgaris [7]) was 19 mm.

In the case of `Cn1c(=O)c2c(n(C)c1=O)n1c(-c3ccc(Br)cc3)nnc1n2C`, the “inhibition zone (IZ)” value (Aspergillus niger [2]) is reported as 22 mm, the “inhibition zone (IZ)” value (Escherichia coli) is reported as 12 mm and the “inhibition zone (IZ)” value (Bacillus spizizenii [3]) is reported as 11 mm. The “inhibition zone (IZ)” value (Candida albicans) was 14 mm, the “inhibition zone (IZ)” value (Staphylococcus aureus [4]) was 14 mm and the “inhibition zone (IZ)” value (Pseudomonas aeruginosa [5]) was 20 mm. The “inhibition zone (IZ)” value (Saccharomyces cerevisiae) was 13 mm, the MIC (Aspergillus niger [6]) was less than 100 µg/mL and the MIC (Pseudomonas aeruginosa [11]) was less than 200 µg/mL. For the same compound, the “inhibition zone (IZ)” value (Proteus vulgaris [7]) was 22 mm and the MIC (Proteus vulgaris [9]) was less than 100 µg/mL.

In the case of `CC1(C)S[C@@H]2[C@H](NC(=O)[C@H](N)c3ccccc3)C(=O)N2[C@H]1C(=O)O` [AMPICILLIN], the MIC (Bacillus spizizenii [12]) is reported as 5 µg/mL (≈ 14.3 µM), the MIC (Salmonella typhi [13]) is reported as 100 µg/mL (≈ 286 µM) and the MIC (Staphylococcus aureus [10]) is reported as 5 µg/mL (≈ 14.3 µM). It also gave an MIC (Pseudomonas aeruginosa [11]) of 100 µg/mL (≈ 286 µM) and an MIC (Proteus vulgaris [9]) of 50 µg/mL (≈ 143 µM).

For `Cn1c(=O)c2nc3[nH]nc(C#N)c(=N)n3c2n(C)c1=O`, the GI50 (CAKI-1) was 51.7 µM, the GI50 [14] was 97.9 µM and the TGI [14] was 100 µM. The “inhibition zone (IZ)” value (Aspergillus niger [2]) was 12 mm, the growth at 100 µM (NCI-H460) was 62% and the GI50 [15] was 91.6 µM. For the same compound, the TGI [15] was 100 µM, the GI50 [16] was 86.3 µM and the TGI [16] was 100 µM. The “inhibition zone (IZ)” value (Escherichia coli) was 14 mm, the GI50 (ACHN) was 44.3 µM and the GI50 [17] was 81.6 µM. The TGI [17] was 96.9 µM, the GI50 (HOP-92) was 31.8 µM and the GI50 (CCRF-CEM [18]) was 67.8 µM. The GI50 (UO-31) was 50.6 µM, the “inhibition zone (IZ)” value (Bacillus spizizenii [3]) was 14 mm and the GI50 (A498) was 51.4 µM. The GI50 [19] was 100 µM, the TGI [19] was 100 µM and the “inhibition zone (IZ)” value (Candida albicans) was 12 mm. It also gave a GI50 [20] of 87.3 µM, a TGI [20] of 100 µM and a growth at 100 µM (SF-268) of 47%. The GI50 (Malme-3M) was 25.2 µM, the “inhibition zone (IZ)” value (Pseudomonas aeruginosa [5]) was 18 mm and the “inhibition zone (IZ)” value (Saccharomyces cerevisiae) was 14 mm. The GI50 [21] was 98 µM, the TGI [21] was 100 µM and the GI50 (NCI-H226) was 54 µM. For the same compound, the “inhibition zone (IZ)” value (Salmonella typhi [22]) was 12 mm, the GI50 [23] was 94.6 µM and the TGI [23] was 100 µM. It also gave a GI50 [24] of 72.2 µM, a TGI [24] of 100 µM and a GI50 (T47D) of 32.9 µM. For the same compound, the growth at 100 µM (MCF7) was 14%, the “inhibition zone (IZ)” value (Proteus vulgaris [7]) was 19 mm and the GI50 (SK-MEL-5) was 45.9 µM.
